Results from PMC10449418, “Adapting antibacterial display to identify serum-active macrocyclic peptide antibiotics” (PNAS Nexus, 2023).
No end group written: not given here.

Assays:
[1] = system: E. coli 25922; experiment: MBC in 100% human serum (HS); format: cell-based, Escherichia coli
Source text: Minimum inhibitory concentration (MIC) and minimum bactericidal concentration (MBC) assays are standard methods used to first examine antimicrobial potential. These assays are often performed against lab strains of bacteria grown in Mueller–Hinton (MH) media which is not representative of conditions found in the human body during infection. […] W3110 is a K12-derived strain and cannot grow in HS and lacks O-antigen on its cell surface in contrast to 25922. MBCs were used instead of MICs because HS was opaque, making bacterial growth difficult to observe by sight. We chose three cationic AMPs previously discovered using SLAY and four natural cationic AMPs, each with α-helical or β-hairpin secondary structure ([18–24]) (Table S1).

[2] = system: E. coli 25922; experiment: NPN outer membrane disruption assay; format: cell-based, Escherichia coli; conditions: 30 min of treatment, PBS, various concentrations, n = 3
Source text: (§1) First, we performed two fluorescent membrane disruption assays using 1-N-phenylnaphthylamine (NPN) and propidium iodide (PI). Normally the outer membrane excludes hydrophobic molecules such as NPN, but when damaged, NPN can bind hydrophobic fatty acids within the membrane and fluoresce. PI fluoresces upon DNA binding but can only gain access to the cytoplasm if both the outer and inner membranes have been permeabilized. Antibiotics tested retained antimicrobial activity under the assay conditions used (Fig. S3A).
A culture of E. coli 25922 was grown overnight in liquid media at 37°C. The following day, it was back diluted 1:25 in LB media and grown at 37°C until an OD600 of 0.5. The culture was then pelleted at 1,000 g, washed once with PBS, and resuspended to a final concentration of OD600 0.5. […] Each sample was loaded in triplicate into a 96-well optical-bottom plate and serially diluted two-fold with final volumes of 50 µl in each well. Fifty microliters of the 40 µM NPN was then added to each well, followed by 100 µl of the bacterial cell suspension. After 30 min, the plate was transferred to a BioTek Synergy LX multimode reader for fluorescent measurements. Triplicate samples were normalized to nontreated wells and presented as a mean ± 1 SD (n = 3).

[3] = system: E. coli 25922; experiment: PI uptake (outer and inner membrane permeabilization) assay; format: cell-based, Escherichia coli; conditions: 30 min of treatment, PBS + 50 mM glucose, 37°C, n = 3
Source text: as §1
PI uptake was measured for E. coli 25922 as previously described ([20]). Briefly, single colonies from overnight growth on LB were inoculated into MH broth and grown to mid-log phase. Cells were then washed twice with PBS + 50 mM glucose and resuspended to an OD = 0.1 in PBS + 50 mM glucose. PI was added at a concentration of 10 µg/ml, and 50 µl of the PI cell mixture was quickly added to a preprepared 96-well plate (NUNC black-walled clear bottom plate) that contained 50 µl of various peptide concentrations. The plate was then allowed to incubate for 30 min in the dark at 37°C and was then read using the Biotek Synergy LX plate reader with the fluorescence red filter cube. Triplicate samples were normalized to nontreated wells and presented as a mean ± 1 SD (n = 3).

[4] = system: G. mellonella larvae; experiment: LD50 in G. mellonella larvae; format: in vivo, Galleria mellonella; conditions: single injection of a 100-mg/kg dose, death after 4 days, n = 10
Method: Live G. mellonella larvae were purchased from DBDPet. Larvae appearing fully healthy (no apparent melanization) and weighing between 200 and 300 mg were used for survival assays. Larvae were first injected into their second left proleg with 10 µl of PBS or PBS containing 1 × 10^6E. coli 25922 cells grown to an OD of 0.5 and washed in PBS. Injections were performed using a Hamilton 250-µl pipet equipped with an autodispenser and 30-gauge BD needle. […] Larvae groups were then incubated at 37°C for 72 h and observed for death. Larvae were determined to be dead if they were unable to right themselves after being placed on their back. Significance was determined by comparing Kaplan–Meier survival curves to untreated using a log-rank test (n ≥ 13 per sample).

[5] = system: E. coli 25922; experiment: MIC (growth inhibition) in MH media; format: cell-based, Escherichia coli; conditions: 37°C, 18–24 h, examined by eye, median of three replicates

| Compound | serum activity (MBC in HS), in words [1] | NPN fluorescence (outer membrane permeation) [2] | PI uptake (outer and inner membrane permeabilization) [3] | LD50 for G. mellonella larvae [4] | Antibiotic activity against E. coli 25922: MIC [5] |
| --- | --- | --- | --- | --- | --- |
| CC(C)C[C@H](NC(=O)[C@H](CCCNC(=N)N)NC(=O)CNC(=O)CNC(=O)[C@@H](N)CCCNC(=N)N)C(=O)N[C@H]1CSSC[C@@H](C(=O)N[C@H](C(=O)NCC(=O)N[C@@H](CCCNC(=N)N)C(N)=O)C(C)C)NC(=O)[C@H](C(C)C)NC(=O)[C@@H]2CSSC[C@H](NC(=O)[C@H](Cc3ccc(O)cc3)NC1=O)C(=O)N[C@@H](CCCNC(=N)N)C(=O)N[C@@H](CCCNC(=N)N)C(=O)N[C@@H](CCCNC(=N)N)C(=O)N[C@@H](Cc1ccccc1)C(=O)N2 [Protegrin-1] | retained the most activity in HS relative to MH | strong fluorescence of both NPN and PI | strong fluorescence of both NPN and PI | over 100 mg/kg | – |
| KWCFRVCYRGICYRRCR-NH2 (disulfide (positions not given here)) [Tachyplesin-1, natural β-AMP] | retained the most activity in HS relative to MH | – | – | – | – |
| Kanamycin | – | no NPN fluorescence or PI uptake | no NPN fluorescence or PI uptake | – | 4 µg/mL |
